The values that follow come from ChEMBL document CHEMBL4330105, “Identification of novel azaindazole CCR1 antagonist clinical candidates” (Bioorg Med Chem Lett, 2019).

Type in all cases: ADME, organism-based
Series [1] is described as follows: Clearance in Sprague-Dawley rat at 10 mg/kg, po or 1 mg/kg, iv relative to hepatic blood flow. As to conditions: in vivo.
Series [2] in a line: Oral bioavailability in Sprague-Dawley rat at 10 mg/kg. The settings on record: in vivo.
Series [3] is described as follows: Volume of distribution at steady state in Sprague-Dawley rat at 10 mg/kg, po or 1 mg/kg, iv. The settings on record: in vivo, read-out: Vdss.

By bioavailability is commonly meant the share of a dose that reaches the circulation, judged against a reference dose that is usually intravenous.

In series [1], `CS(=O)(=O)c1cc(CNC(=O)c2cncc3c2cnn3-c2ccc(F)cc2)ccn1` had a CL of 8%. The bioavailability in series [2] was 29%. Moreover, the Vd in series [3] was determined as 1.2 L/kg.
